Measured values taken from US20250195521A1 (Revolution Medicines, Inc., priority 2020, published 2025).
Read-outs that look alike come from different tables or passages of the source.

How the values were obtained:
KRAS G12D = KRAS G12D (Homo sapiens (Human), UniProt P01116+P62937, G12D); test: Ras-Raf disruption/FRET/MOA assay, KRAS G12D; format: biochemical
Excerpt: (§1) Disruption of B-Raf Ras-Binding Domain (BRAF^RBD) Interaction with K-Ras by Compounds of the Invention (Also Called a FRET Assay or an MOA Assay)
(§2) Note—The following protocol describes a procedure for monitoring disruption of K-Ras G12C (GMP-PNP) binding to BRAF^RBD by a compound of the invention. This protocol may also be executed substituting other Ras proteins or nucleotides, such as K-Ras G12D and K-Ras G13D.
(§3) The purpose of this biochemical assay was to measure the ability of test compounds to facilitate ternary complex formation between a nucleotide-loaded K-Ras isoform and Cyclophilin A; the resulting ternary complex disrupts binding to a BRAF^RBD construct, inhibiting K-Ras signaling through a RAF effector. Data is reported as IC50 values.
(§4) In assay buffer containing 25 mM HEPES pH 7.3, 0.002% Tween20, 0.1% BSA, 100 mM NaCl and 5 mM MgCl2, tagless Cyclophilin A, His6-K-Ras-GMPPNP, and GST-BRAF^RBD were combined in a 384-well assay plate at final concentrations of 25 μM, 12.5 nM, and 50 nM, respectively. Compound was present in plate wells as a 10-point 3-fold dilution series starting at a final concentration of 30 μM. After incubation at 25° C. for 3 hours, a mixture of anti-His Eu—W1024 and anti-GST allophycocyanin was then added to assay sample wells at final concentrations of 10 nM and 50 nM, respectively, and the reaction incubated for an additional 1.5 hours. […] Compounds that facilitate disruption of a K-Ras: RAF complex were identified as those eliciting a decrease in the TR-FRET ratio relative to DMSO control wells.

KRAS G12S = KRAS G12S (Homo sapiens (Human), UniProt P01116+P62937, G12S); test: Ras-Raf disruption/FRET/MOA assay, KRAS G12S; format: biochemical
Chain of KRAS G12S (P01116 other isoform, or with tags, fused parts or gaps G12S): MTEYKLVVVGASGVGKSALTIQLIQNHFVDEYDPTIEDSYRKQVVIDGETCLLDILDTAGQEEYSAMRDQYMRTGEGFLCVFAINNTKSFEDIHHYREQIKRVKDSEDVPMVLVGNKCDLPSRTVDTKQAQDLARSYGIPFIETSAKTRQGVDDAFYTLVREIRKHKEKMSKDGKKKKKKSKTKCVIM
Chain of KRAS G12S (P62937 whole entry): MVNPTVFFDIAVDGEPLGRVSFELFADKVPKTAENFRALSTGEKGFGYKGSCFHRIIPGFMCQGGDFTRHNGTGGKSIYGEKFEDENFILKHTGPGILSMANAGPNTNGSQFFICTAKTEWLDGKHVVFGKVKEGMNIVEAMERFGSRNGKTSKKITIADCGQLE
Excerpt: as §1, §2, §3, §4

AsPC-1 (K-Ras G12D) [1] = test: CellTiter-Glo cell viability assay, AsPC-1; format: cell-based, human; conditions: Homo sapiens, ASPC1, 120 h, read-out: AsPC-1 Cell Viability IC50
Summary of the method: (§5)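 Compounds dispensed directly onto seeded K-Ras mutant cells; plates read on day 5 after ~30 min equilibration to room temperature, by CellTiter-Glo luminescence. Signal normalized as (sample/mean DMSO)×100, then fitted to a four-parameter logistic curve.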

KRAS G12V = KRAS G12V (Homo sapiens (Human), UniProt P01116+P62937, G12V); test: Ras-Raf disruption/FRET/MOA assay, KRAS G12V; format: biochemical
Chain of KRAS G12V (P01116 other isoform, or with tags, fused parts or gaps G12V): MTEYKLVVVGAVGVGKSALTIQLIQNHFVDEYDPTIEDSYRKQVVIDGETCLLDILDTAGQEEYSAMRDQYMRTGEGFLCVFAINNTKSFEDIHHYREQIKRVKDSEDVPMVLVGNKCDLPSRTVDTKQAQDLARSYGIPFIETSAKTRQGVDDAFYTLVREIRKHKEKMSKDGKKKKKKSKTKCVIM
Chain of KRAS G12V (P62937 whole entry): as the sequence (P62937 whole entry) above
Summary of the method: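 His6-Ras-GMPPNP 12.5 nM + GST-BRAF^RBD 50 nM + CypA 25 μM; HEPES pH 7.3, 5 mM MgCl2, 0.1% BSA, 0.002% Tween20. Cpd 10-pt 3-fold from 30 μM final, 3 h 25° C. Eu/APC antibody detection 1.5 h; TR-FRET ratio drop vs DMSO → IC50.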

NRAS G12C = NRAS G12C (Homo sapiens (Human), UniProt P01111+P62937, G12C); test: Ras-Raf disruption/FRET/MOA assay, NRAS G12C; format: biochemical
Chain of NRAS G12C (P01111 whole entry G12C): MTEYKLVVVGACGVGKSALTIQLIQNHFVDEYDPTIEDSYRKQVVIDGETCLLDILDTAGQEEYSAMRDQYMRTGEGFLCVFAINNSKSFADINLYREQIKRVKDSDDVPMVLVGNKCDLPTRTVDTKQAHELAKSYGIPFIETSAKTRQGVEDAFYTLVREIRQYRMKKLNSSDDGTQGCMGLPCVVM
Chain of NRAS G12C (P62937 whole entry): as the sequence (P62937 whole entry) above
Excerpt: as §1, §2, §3, §4

KRAS WT = KRAS WT (Homo sapiens (Human), UniProt P01116+P62937); test: Ras-Raf disruption/FRET/MOA assay, KRAS WT; format: biochemical
Chain of KRAS WT (P01116 other isoform, or with tags, fused parts or gaps): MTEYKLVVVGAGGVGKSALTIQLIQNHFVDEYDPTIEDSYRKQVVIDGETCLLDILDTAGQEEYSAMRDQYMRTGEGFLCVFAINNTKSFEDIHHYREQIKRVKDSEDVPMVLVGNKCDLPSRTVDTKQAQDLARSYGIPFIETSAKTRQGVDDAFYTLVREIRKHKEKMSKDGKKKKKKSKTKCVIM
Chain of KRAS WT (P62937 whole entry): as the sequence (P62937 whole entry) above
Excerpt: as §1, §2, §3, §4

AsPC-1 (K-Ras G12D) [2] = test: Potency assay: pERK; format: cell-based, human; conditions: Homo sapiens
Summary of the method: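 Cells plated overnight, then exposed 4 h at 37 °C to 10-point 3-fold dilutions of compound, in duplicate. pERK read by AlphaLISA SureFire Ultra p-ERK1/2 lysate assay or by In-Cell Western (pERK antibody, DRAQ5 DNA normalisation). IC50 from 4-parameter sigmoidal fit of signal vs log concentration.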

KRAS G13C = KRAS G13C (Homo sapiens (Human), UniProt P01116+P62937, G13C); test: Ras-Raf disruption/FRET/MOA assay, KRAS G13C; format: biochemical
Chain of KRAS G13C (P01116 other isoform, or with tags, fused parts or gaps G13C): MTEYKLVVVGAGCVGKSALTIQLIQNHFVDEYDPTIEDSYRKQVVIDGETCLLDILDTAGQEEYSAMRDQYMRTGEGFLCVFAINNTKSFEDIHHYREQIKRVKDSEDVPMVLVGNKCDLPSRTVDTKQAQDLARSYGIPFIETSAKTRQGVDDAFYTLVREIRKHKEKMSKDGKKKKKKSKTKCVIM
Chain of KRAS G13C (P62937 whole entry): as the sequence (P62937 whole entry) above
Excerpt: as §1, §2, §3, §4

KRAS G12C = KRAS G12C (Homo sapiens (Human), UniProt P01116+P62937, G12C); test: Ras-Raf disruption/FRET/MOA assay, KRAS G12C; format: biochemical
Chain of KRAS G12C (P01116-2 other isoform, or with tags, fused parts or gaps G12C): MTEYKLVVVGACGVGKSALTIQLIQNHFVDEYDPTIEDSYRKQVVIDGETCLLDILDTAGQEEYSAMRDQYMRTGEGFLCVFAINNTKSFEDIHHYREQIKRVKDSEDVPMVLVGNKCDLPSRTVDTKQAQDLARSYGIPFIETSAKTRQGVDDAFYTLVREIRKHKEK
Chain of KRAS G12C (P62937 whole entry): as the sequence (P62937 whole entry) above
Excerpt: as §1, §2, §3, §4

KRAS G13D = KRAS G13D (Homo sapiens (Human), UniProt P01116+P62937, G13D); test: Ras-Raf disruption/FRET/MOA assay, KRAS G13D; format: biochemical
Chain of KRAS G13D (P01116 other isoform, or with tags, fused parts or gaps G13D): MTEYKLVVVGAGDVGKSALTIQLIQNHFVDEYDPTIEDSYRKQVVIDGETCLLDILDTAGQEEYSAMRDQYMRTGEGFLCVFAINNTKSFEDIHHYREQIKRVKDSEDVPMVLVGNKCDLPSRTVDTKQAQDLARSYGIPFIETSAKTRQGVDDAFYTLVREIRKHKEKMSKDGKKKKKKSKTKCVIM
Chain of KRAS G13D (P62937 whole entry): as the sequence (P62937 whole entry) above
Excerpt: as §1, §2, §3, §4

NCI-H358 (K-Ras G12C) = test: CellTiter-Glo cell viability assay, H358; format: cell-based, human; conditions: Homo sapiens, NCI-H358, 120 h, read-out: H358 Cell Viability IC50, K-Ras G12C, 5-day treatment
Summary of the method: as §5

Chain of KRAS G12D (P01116 other isoform, or with tags, fused parts or gaps G12D): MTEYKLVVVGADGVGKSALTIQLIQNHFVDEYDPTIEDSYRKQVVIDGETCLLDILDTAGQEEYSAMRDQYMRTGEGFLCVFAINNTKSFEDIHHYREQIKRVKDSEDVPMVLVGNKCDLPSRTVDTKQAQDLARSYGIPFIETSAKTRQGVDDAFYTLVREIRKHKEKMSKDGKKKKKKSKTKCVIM
Chain of KRAS G12D (P62937 whole entry, the tested form may be a part): as the sequence (P62937 whole entry) above

Row | SMILES | IC50 (KRAS G12D) [nM] | IC50 (KRAS G12S) [nM] | IC50 (AsPC-1 (K-Ras G12D) [1]) [nM] | IC50 (KRAS G12V) [nM] | IC50 (NRAS G12C) [nM] | IC50 (KRAS WT) [nM] | EC50 (AsPC-1 (K-Ras G12D) [2]; ASPC1, read-out: pERK EC50) [nM] | IC50 (KRAS G13C) [nM] | IC50 (KRAS G12C) [nM] | IC50 (KRAS G13D) [nM] | IC50 (NCI-H358 (K-Ras G12C)) [nM] | also measured
1 | CCn1c(-c2cnccc2COC)c2c3cc(ccc31)-c1cc(O)cc(c1)C[C@H](NC(=O)[C@H](C(C)C)N(C)C(=O)CN(C)C(=O)[C@@H]1N[C@H]1c1ccc(OC)cc1)C(=O)N1CCC[C@H](N1)C(=O)OCC(C)(C)C2 [Example 96] | 100 to 1000 | 10 to 100 | 1000 to 10000 | 10 to 100 | 10 to 100 | 10 to 100 | < 5000 | 10 to 100 | 10 to 100 | 100 to 1000 | 1000 to 10000 | –
2 | CCn1c(-c2cnccc2COC)c2c3cc(ccc31)-c1cc(O)cc(c1)C[C@H](NC(=O)[C@H](C(C)C)N(C)C(=O)CN(C)C(=O)[C@H]1N[C@@H]1c1ccc(OC)cc1)C(=O)N1CCC[C@H](N1)C(=O)OCC(C)(C)C2 [Example 97] | 100 to 1000 | 10 to 100 | 1000 to 10000 | 10 to 100 | 10 to 100 | 10 to 100 | < 5000 | 10 to 100 | 10 to 100 | 100 to 1000 | – | –
3 | CCn1c(-c2cnccc2COC)c2c3cc(ccc31)-c1cc(O)cc(c1)C[C@H](NC(=O)[C@H](C(C)C)N(C)C(=O)CN(C)C(=O)[C@@H]1N[C@@H]1C1CC1)C(=O)N1CCC[C@H](N1)C(=O)OCC(C)(C)C2 [Example 103] | 10 to 100 | 10 to 100 | 100 to 1000 | 10 to 100 | 10 to 100 | 10 to 100 | < 5000 | 10 to 100 | 10 to 100 | 100 to 1000 | 100 to 1000 | –
4 | CCn1c(-c2cnccc2COC)c2c3cc(ccc31)-c1cc(O)cc(c1)C[C@H](NC(=O)[C@H](C(C)C)N(C)C(=O)CN(C)C(=O)[C@H]1N[C@H]1C1CC1)C(=O)N1CCC[C@H](N1)C(=O)OCC(C)(C)C2 [Example 104] | 100 to 1000 | 10 to 100 | 1000 to 10000 | 100 to 1000 | 10 to 100 | 100 to 1000 | < 5000 | 10 to 100 | 10 to 100 | 100 to 1000 | – | –
5 | CCn1c(-c2cnccc2COC)c2c3cc(ccc31)-c1cc(O)cc(c1)C[C@H](NC(=O)[C@H](C(C)C)N(C)C(=O)CN(C)C(=O)[C@@H]1N[C@@H]1C)C(=O)N1CCC[C@H](N1)C(=O)OCC(C)(C)C2 [Example 105] | 100 to 1000 | 10 to 100 | 1000 to 10000 | 100 to 1000 | 10 to 100 | 10 to 100 | < 5000 | 10 to 100 | 10 to 100 | 100 to 1000 | – | –
6 | CCn1c(-c2cccnc2[C@H](C)OC)c2c3cc(ccc31)-c1cc(O)cc(c1)C[C@H](NC(=O)[C@H](C(C)C)N1CC[C@@]3(CCC(C(=O)[C@@H]4N[C@@H]4C4CC4)C3)C1=O)C(=O)N1CCC[C@H](N1)C(=O)OCC(C)(C)C2 (some centres unmarked) [Example 128] | – | – | – | – | – | – | – | – | – | – | – | IC50 (KRAS G12D; read-out: KRAS G12D FRET IC50): 100 to 1000 nM; IC50 (KRAS G12S; read-out: KRAS G12S FRET IC50): 100 to 1000 nM; IC50 (AsPC-1 (K-Ras G12D) [1]; K-Ras G12D, 5-day treatment): 1000 to 10000 nM; IC50 (KRAS G12V; read-out: KRAS G12V FRET IC50): 100 to 1000 nM; IC50 (NRAS G12C; read-out: NRAS G12C FRET data IC50): 10 to 100 nM; IC50 (KRAS WT; read-out: KRAS WT FRET IC50): 100 to 1000 nM; EC50 (AsPC-1 (K-Ras G12D) [2]; ASPC1, AsPC-1 KRAS G12D, read-out: pERK EC50): < 5000 nM; IC50 (KRAS G13C; read-out: KRAS G13C FRET IC50): 10 to 100 nM; IC50 (KRAS G12C; read-out: KRAS G12C FRET data IC50): 10 to 100 nM; IC50 (KRAS G13D; read-out: KRAS G13D FRET IC50): 100 to 1000 nM
